# Source: ChEMBL document CHEMBL3751785, “Development and structural analysis of adenosine site binding tankyrase inhibitors” (Bioorg Med Chem Lett, 2016)
# pIC50: −log10 of the molar value.
# Tests used:
# [1] = biological target: Poly [ADP-ribose] polymerase 2 (Homo sapiens, UniProt Q9UGN5); experiment: Inhibition of human ARTD2 by fluorescence analysis
# [2] = biological target: T1, Protein mono-ADP-ribosyltransferase PARP3 (Homo sapiens, UniProt Q9Y6F1); experiment: Inhibition of human ARTD3 by fluorescence analysis
# T1 sequence (Q9Y6F1 whole entry): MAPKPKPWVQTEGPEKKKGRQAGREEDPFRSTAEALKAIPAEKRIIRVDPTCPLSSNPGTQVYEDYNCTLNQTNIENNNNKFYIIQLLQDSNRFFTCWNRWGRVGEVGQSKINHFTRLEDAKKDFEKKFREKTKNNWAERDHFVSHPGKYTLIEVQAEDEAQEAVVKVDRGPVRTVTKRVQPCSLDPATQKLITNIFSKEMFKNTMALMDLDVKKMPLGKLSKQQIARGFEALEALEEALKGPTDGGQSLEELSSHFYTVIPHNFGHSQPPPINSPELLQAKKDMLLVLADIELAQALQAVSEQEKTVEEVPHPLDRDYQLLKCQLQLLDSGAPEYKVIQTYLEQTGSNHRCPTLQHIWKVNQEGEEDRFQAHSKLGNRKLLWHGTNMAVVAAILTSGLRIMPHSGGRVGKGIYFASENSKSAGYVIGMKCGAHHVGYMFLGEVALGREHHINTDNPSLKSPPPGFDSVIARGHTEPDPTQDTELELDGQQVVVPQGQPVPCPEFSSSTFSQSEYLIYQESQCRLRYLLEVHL
# [3] = biological target: T2, Poly [ADP-ribose] polymerase tankyrase-1 (Homo sapiens, UniProt O95271); experiment: Inhibition of human TNKS1 by fluorescence analysis
# T2 sequence (O95271 whole entry): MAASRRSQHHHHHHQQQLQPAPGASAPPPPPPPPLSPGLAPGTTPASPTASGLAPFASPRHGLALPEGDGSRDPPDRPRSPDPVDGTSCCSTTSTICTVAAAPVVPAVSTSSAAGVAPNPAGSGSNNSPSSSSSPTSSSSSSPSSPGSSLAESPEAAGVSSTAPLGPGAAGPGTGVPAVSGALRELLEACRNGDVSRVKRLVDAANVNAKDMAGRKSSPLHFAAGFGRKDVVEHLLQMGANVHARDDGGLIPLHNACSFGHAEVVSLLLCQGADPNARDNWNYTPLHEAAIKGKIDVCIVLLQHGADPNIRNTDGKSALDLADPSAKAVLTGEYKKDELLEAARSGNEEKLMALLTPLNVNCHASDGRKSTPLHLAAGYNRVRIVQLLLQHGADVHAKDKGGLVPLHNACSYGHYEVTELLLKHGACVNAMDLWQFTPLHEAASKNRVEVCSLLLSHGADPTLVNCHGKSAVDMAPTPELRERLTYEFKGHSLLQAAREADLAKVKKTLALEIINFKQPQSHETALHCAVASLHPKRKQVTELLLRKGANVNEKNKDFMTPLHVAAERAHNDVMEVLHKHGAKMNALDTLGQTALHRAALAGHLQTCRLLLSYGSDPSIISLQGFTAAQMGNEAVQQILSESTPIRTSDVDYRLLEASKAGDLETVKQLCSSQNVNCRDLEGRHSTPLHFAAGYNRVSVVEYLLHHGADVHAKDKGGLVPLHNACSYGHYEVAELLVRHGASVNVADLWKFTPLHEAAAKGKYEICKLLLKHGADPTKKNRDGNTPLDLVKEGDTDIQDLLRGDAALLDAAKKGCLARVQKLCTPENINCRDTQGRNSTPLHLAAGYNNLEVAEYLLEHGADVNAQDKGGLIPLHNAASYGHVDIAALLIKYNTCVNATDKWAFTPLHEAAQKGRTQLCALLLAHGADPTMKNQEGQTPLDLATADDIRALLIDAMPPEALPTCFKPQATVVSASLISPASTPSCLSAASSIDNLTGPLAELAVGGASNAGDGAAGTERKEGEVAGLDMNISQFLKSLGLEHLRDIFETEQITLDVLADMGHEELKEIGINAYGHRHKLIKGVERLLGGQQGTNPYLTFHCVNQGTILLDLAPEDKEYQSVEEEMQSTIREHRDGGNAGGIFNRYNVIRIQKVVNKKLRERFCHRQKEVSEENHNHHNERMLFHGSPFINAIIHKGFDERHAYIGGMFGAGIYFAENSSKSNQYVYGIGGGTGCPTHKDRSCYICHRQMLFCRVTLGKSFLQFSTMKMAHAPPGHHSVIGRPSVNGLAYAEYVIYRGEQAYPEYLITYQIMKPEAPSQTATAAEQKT
# Tankyrase 1/2 = biological target: T3, Tankyrase 1/2 (Homo sapiens, UniProt Q9H2K2+O95271); experiment: Inhibition of tankyrase in WNT3a-stimulated human HEK293 cells by luciferase reporter gene assay; format: cell-based
# T3 sequence (Q9H2K2 whole entry): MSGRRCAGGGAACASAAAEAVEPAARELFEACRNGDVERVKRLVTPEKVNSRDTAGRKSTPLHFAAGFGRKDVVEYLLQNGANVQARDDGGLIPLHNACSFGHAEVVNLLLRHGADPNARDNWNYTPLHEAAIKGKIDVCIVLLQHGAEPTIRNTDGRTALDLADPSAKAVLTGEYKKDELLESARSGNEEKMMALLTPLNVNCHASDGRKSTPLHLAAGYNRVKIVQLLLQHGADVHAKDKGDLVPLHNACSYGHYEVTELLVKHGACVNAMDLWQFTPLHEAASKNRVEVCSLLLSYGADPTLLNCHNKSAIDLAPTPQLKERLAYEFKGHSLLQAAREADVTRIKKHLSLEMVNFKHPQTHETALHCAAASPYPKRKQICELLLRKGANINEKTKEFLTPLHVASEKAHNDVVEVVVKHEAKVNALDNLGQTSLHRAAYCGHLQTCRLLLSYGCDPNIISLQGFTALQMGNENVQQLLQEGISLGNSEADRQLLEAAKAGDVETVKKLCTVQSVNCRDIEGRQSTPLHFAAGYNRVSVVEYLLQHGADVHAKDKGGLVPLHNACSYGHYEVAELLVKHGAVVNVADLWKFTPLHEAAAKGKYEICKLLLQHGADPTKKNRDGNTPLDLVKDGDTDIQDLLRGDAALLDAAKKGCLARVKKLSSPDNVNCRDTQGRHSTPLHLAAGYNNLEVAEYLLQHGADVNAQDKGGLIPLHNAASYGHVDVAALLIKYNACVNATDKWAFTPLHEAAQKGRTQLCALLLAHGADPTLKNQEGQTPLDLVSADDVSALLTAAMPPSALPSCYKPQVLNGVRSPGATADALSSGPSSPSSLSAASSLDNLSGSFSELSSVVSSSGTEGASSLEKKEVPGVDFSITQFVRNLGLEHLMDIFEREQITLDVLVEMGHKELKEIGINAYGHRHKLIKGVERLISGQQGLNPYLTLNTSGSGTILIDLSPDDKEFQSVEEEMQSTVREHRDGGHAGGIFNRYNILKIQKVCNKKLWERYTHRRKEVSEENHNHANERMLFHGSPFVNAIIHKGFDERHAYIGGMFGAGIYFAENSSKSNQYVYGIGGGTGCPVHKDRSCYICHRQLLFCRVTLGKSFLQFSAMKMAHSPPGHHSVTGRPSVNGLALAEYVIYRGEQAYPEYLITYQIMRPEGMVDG
# T3 sequence (O95271 whole entry): T2 sequence (O95271 whole entry)
# Poly [ADP-ribose] polymerase 2, sequence (Q9UGN5 whole entry): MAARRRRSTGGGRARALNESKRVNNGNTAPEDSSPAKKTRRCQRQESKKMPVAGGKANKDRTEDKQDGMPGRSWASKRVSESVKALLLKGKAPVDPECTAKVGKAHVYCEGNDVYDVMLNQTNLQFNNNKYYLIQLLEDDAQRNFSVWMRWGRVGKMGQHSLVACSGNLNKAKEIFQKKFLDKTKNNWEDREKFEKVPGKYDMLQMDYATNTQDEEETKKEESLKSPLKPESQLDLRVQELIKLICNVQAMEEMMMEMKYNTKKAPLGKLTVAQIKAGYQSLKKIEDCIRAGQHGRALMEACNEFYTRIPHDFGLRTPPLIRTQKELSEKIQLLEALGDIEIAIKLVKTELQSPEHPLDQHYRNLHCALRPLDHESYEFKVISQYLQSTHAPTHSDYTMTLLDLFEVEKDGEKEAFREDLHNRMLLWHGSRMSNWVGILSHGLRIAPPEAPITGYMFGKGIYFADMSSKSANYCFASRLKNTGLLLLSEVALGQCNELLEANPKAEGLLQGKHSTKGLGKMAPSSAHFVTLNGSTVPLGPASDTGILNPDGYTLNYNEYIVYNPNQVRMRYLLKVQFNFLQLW
smiles,measurement,setting,value
COc1ccc(C2(CNC(=O)c3ccc(NC(=O)c4ccco4)cc3Cl)CCOCC2)cc1,pIC50,[1],< 4.00
same,pIC50,[2],< 4.00
same,pIC50,[3],6.24
same,IC50,Tankyrase 1/2,360 nM
